These are literature values, as cited in US20050271673A1, “Trifunctional reagent for conjugation to a biomolecule” (priority 1998, published 2005).

Data set [1] has as its target avidin (Gallus gallus, UniProt P02701). Particulars: association constant; Green 1990, 1975.
Data set [2] concerns the target streptavidin (Streptomyces avidinii, UniProt P22629). The conditions noted are these: association constant; Green 1990, 1975.

Chain of streptavidin (P22629 25-183, species assumed): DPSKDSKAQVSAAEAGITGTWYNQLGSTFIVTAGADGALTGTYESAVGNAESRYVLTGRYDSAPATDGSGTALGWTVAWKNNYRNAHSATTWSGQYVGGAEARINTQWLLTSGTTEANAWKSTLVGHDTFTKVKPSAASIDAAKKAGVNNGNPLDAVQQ
Chain of avidin (P02701 25-152, species assumed): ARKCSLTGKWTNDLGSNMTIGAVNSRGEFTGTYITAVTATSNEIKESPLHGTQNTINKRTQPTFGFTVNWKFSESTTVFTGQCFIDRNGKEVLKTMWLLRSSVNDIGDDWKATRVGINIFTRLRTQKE

`O=C(O)CCCC[C@@H]1SC[C@@H]2NC(=O)N[C@@H]21` [biotin]: in data set [1], the “K (binding constant of biotin with avidin)” value was 1013 to 1015 M⁻¹. In addition, the “K (binding constant of biotin with streptavidin)” value in data set [2] was 1013 to 1015 M⁻¹.
